# Results as given in US8952024B2, “Herbicidal pyrimidone derivatives” (E I du Pont de Nemours and Company, priority 2009, dated 2015).
# Experiments:
# Assay in all cases: Test B pre-/postemergence plant response
# Assay type in all cases: in vivo
# [1] = tested on: lambsquarters (Chenopodium album)
# In short: (§1)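 Test compounds, formulated in a non-phytotoxic solvent mixture with surfactant, are applied to the soil surface (loam and sand blend) right after seeding, or sprayed over plants at the 1- to 4-leaf stage grown in peat moss/vermiculite medium. After 13 to 15 days under glasshouse conditions, each species is scored visually from 0 (no effect) to 100 (complete control) against controls.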
# [2] = tested on: pigweed (Amaranthus retroflexus)
# In short: as §1
# [3] = tested on: large crabgrass (Digitaria sanguinalis)
# In short: as §1
# [4] = tested on: downy bromegrass (Bromus tectorum)
# In short: as §1
# [5] = tested on: Surinam grass (Brachiaria decumbens)
# In short: as §1
# [6] = tested on: ragweed (common ragweed, Ambrosia elatior)
# In short: as §1
# [7] = tested on: wheat (Triticum aestivum)
# In short: as §1
# corn (Zea mays) = tested on: corn (Zea mays)
# In short: as §1
# [8] = tested on: yellow nutsedge (Cyperus esculentus)
# In short: as §1
# [9] = tested on: velvetleaf (Abutilon theophrasti)
# In short: as §1
# [10] = tested on: woolly cupgrass (Eriochloa villosa)
# In short: as §1
# [11] = tested on: blackgrass (Alopecurus myosuroides)
# In short: as §1
# [12] = tested on: goosegrass (Eleusine indica)
# In short: as §1
# wild oat (Avena fatua) = tested on: wild oat (Avena fatua)
# In short: as §1
# kochia (Kochia scoparia) = conditions: Postemergence; for Plant response rating, Kochia: scale 0 (no effect) to 100 (complete control)
# In short: as §1
# soybean (Glycine max) = tested on: soybean (Glycine max)
# In short: as §1
# [13] = tested on: johnsongrass (Sorghum halepense)
# In short: as §1
# [14] = tested on: Italian ryegrass (Lolium multiflorum)
# In short: as §1
# [15] = 250 g ai/ha, Preemergence, 0 to 100 scale
# [16] = Postemergence, 62 g ai/ha, scale 0 (no effect) to 100 (complete control), 13 to 15 days
# [17] = Postemergence, 125 g ai/ha, visual rating after 13 to 15 days, scale 0 (no effect) to 100 (complete control)
# [18] = Postemergence, 250 g ai/ha, scale 0 to 100
# [19] = Preemergence, 31 g ai/ha, scale 0 to 100 (0 no effect, 100 complete control)
# [20] = Preemergence, 62 g ai/ha, scale 0 to 100, 0 no effect, 100 complete control
# [21] = Preemergence, 125 g ai/ha, 0 to 100 scale
# [22] = Postemergence, 31 g ai/ha, scale 0 to 100 (0 no effect, 100 complete control)
smiles,measurement,setting,value
Cc1cccc(-n2c(-c3cccc(Cl)c3)ncc(C(=O)C3=C(O)CCCC3=O)c2=O)c1 [Compound 45],"Plant response rating, Lambsquarters",[1]; [15],100
same,"Plant response rating, Lambsquarters",[1]; [16],98
same,"Plant response rating, Lambsquarters",[1]; [17],100
same,Lambsquarters plant response rating,[1]; [18],100
same,"Plant response rating, Lambsquarters",[1]; [19],100
same,"Plant response rating, Lambsquarters",[1]; [20],100
same,Lambsquarters plant response rating,[1]; [21],100
same,"Plant response rating, Pigweed",[2]; [15],100
same,"Plant response rating, Pigweed",[2]; [16],98
same,"Plant response rating, Pigweed",[2]; [17],100
same,"Plant response rating, Pigweed",[2]; [19],85
same,Pigweed plant response rating,[2]; [21],100
same,"Plant response rating, Crabgrass, Large",[3]; [15],100
same,"Plant response rating, Crabgrass, Large",[3]; [22],65
same,"Plant response rating, Crabgrass, Large",[3]; [16],75
same,"Plant response rating, Crabgrass, Large",[3]; [17],75
same,"Crabgrass, Large plant response rating",[3]; [18],85
same,"Plant response rating, Crabgrass, Large",[3]; [19],45
same,"Plant response rating, Crabgrass, Large",[3]; [20],95
same,"Crabgrass, Large plant response rating",[3]; [21],100
same,"Plant response rating, Bromegrass, Downy",[4]; [15],5
same,"Plant response rating, Bromegrass, Downy",[4]; [22],10
same,"Plant response rating, Bromegrass, Downy",[4]; [16],20
same,"Plant response rating, Bromegrass, Downy",[4]; [17],45
same,"Bromegrass, Downy plant response rating",[4]; [18],50
same,"Plant response rating, Bromegrass, Downy",[4]; [19],0
same,"Plant response rating, Bromegrass, Downy",[4]; [20],0
same,"Bromegrass, Downy plant response rating",[4]; [21],0
same,"Plant response rating, Surinam Grass",[5]; [15],98
same,"Plant response rating, Surinam Grass",[5]; [16],75
same,"Plant response rating, Surinam Grass",[5]; [17],95
same,"Plant response rating, Surinam Grass",[5]; [19],45
same,Surinam Grass plant response rating,[5]; [21],98
same,"Plant response rating, Ragweed",[6]; [15],95
same,"Plant response rating, Ragweed",[6]; [16],85
same,"Plant response rating, Ragweed",[6]; [17],95
same,"Plant response rating, Ragweed",[6]; [19],45
same,Ragweed plant response rating,[6]; [21],80
same,"Plant response rating, Wheat",[7]; [15],0
same,"Plant response rating, Wheat",[7]; [16],15
same,"Plant response rating, Wheat",[7]; [17],15
same,"Plant response rating, Wheat",[7]; [19],0
same,Wheat plant response rating,[7]; [21],0
same,"Plant response rating, Corn",corn (Zea mays); [15],0
same,"Plant response rating, Corn",corn (Zea mays); [22],10
same,"Plant response rating, Corn",corn (Zea mays); [16],45
same,"Plant response rating, Corn",corn (Zea mays); [17],60
same,Corn plant response rating,corn (Zea mays); [18],80
same,"Plant response rating, Corn",corn (Zea mays); [19],0
same,"Plant response rating, Corn",corn (Zea mays); [20],0
same,Corn plant response rating,corn (Zea mays); [21],0
same,"Plant response rating, Nutsedge, Yellow",[8]; [15],70
same,"Plant response rating, Nutsedge, Yellow",[8]; [16],10
same,"Plant response rating, Nutsedge, Yellow",[8]; [17],45
same,"Plant response rating, Nutsedge, Yellow",[8]; [19],0
same,"Nutsedge, Yellow plant response rating",[8]; [21],20
same,"Plant response rating, Velvetleaf",[9]; [15],95
same,"Plant response rating, Velvetleaf",[9]; [16],80
same,"Plant response rating, Velvetleaf",[9]; [17],90
same,"Plant response rating, Velvetleaf",[9]; [19],0
same,Velvetleaf plant response rating,[9]; [21],85
same,"Plant response rating, Cupgrass, Woolly",[10]; [15],75
same,"Plant response rating, Cupgrass, Woolly",[10]; [22],70
same,"Plant response rating, Cupgrass, Woolly",[10]; [16],75
same,"Plant response rating, Cupgrass, Woolly",[10]; [17],75
same,"Cupgrass, Woolly plant response rating",[10]; [18],80
same,"Plant response rating, Cupgrass, Woolly",[10]; [19],45
same,"Plant response rating, Cupgrass, Woolly",[10]; [20],45
same,"Cupgrass, Woolly plant response rating",[10]; [21],60
same,"Plant response rating, Blackgrass",[11]; [15],5
same,"Plant response rating, Blackgrass",[11]; [22],5
same,"Plant response rating, Blackgrass",[11]; [16],5
same,"Plant response rating, Blackgrass",[11]; [17],10
same,Blackgrass plant response rating,[11]; [18],25
same,"Plant response rating, Blackgrass",[11]; [19],0
same,"Plant response rating, Blackgrass",[11]; [20],0
same,Blackgrass plant response rating,[11]; [21],0
same,"Plant response rating, Goosegrass",[12]; [15],100
same,"Plant response rating, Goosegrass",[12]; [16],75
same,"Plant response rating, Goosegrass",[12]; [17],80
same,Goosegrass plant response rating,[12]; [18],90
same,"Plant response rating, Goosegrass",[12]; [19],80
same,Goosegrass plant response rating,[12]; [21],100
same,"Plant response rating, Oat, Wild",wild oat (Avena fatua); [15],5
same,"Plant response rating, Oat, Wild",wild oat (Avena fatua); [16],55
same,"Plant response rating, Oat, Wild",wild oat (Avena fatua); [17],60
same,"Plant response rating, Oat, Wild",wild oat (Avena fatua); [19],0
same,"Oat, Wild plant response rating",wild oat (Avena fatua); [21],0
same,"Plant response rating, Kochia","kochia (Kochia scoparia); 62 g ai/ha, 13 to 15 days",0
same,"Plant response rating, Kochia","kochia (Kochia scoparia); 125 g ai/ha, visual rating after 13 to 15 days",15
same,Kochia plant response rating,"kochia (Kochia scoparia); 250 g ai/ha, scale 0 to 100",98
same,"Plant response rating, Soybean",soybean (Glycine max); [15],0
same,"Plant response rating, Soybean",soybean (Glycine max); [16],95
same,"Plant response rating, Soybean",soybean (Glycine max); [17],98
same,"Plant response rating, Soybean",soybean (Glycine max); [19],0
same,Soybean plant response rating,soybean (Glycine max); [21],0
same,"Plant response rating, Johnsongrass",[13]; [15],85
same,"Plant response rating, Johnsongrass",[13]; [16],90
same,"Plant response rating, Johnsongrass",[13]; [17],98
same,Johnsongrass plant response rating,[13]; [18],100
same,"Plant response rating, Johnsongrass",[13]; [19],0
same,"Plant response rating, Johnsongrass",[13]; [20],45
same,Johnsongrass plant response rating,[13]; [21],75
same,"Plant response rating, Ryegrass, Italian",[14]; [15],0
same,"Plant response rating, Ryegrass, Italian",[14]; [16],30
same,"Plant response rating, Ryegrass, Italian",[14]; [17],35
same,"Plant response rating, Ryegrass, Italian",[14]; [19],0
same,"Ryegrass, Italian plant response rating",[14]; [21],0
